How the values were obtained:
Salmonella bacteria = test: Enzymes originating from the bacteria (Salmonella colonies), overall statement; format: cell-based; settings: summary in words
Procedure: (§1) Seeding of Salmonella bacteria: 10 μl of stools are deposited onto a Petri dish, this stool suspension is mixed or not mixed with 10 μl of a suspension of Salmonella (0.5 McF) and isolated as 3 dials on a Petri dish. Various […] and various Salmonella strains originating from the applicant's collection are used according to this protocol. The Petri dishes are incubated at 37° C. for 24 hours. The appearance of a coloration at the point of deposit of the stool (“deposit” column) and at the Salmonella colony (“colony” column) is read according to a semi-quantitative scale: • 0=no coloration • 0.5=trace of coloration • 1=weak coloration • 2=strong coloration The results obtained are given in Table 1.
(§2) Preparation of the detection medium: 250 ml of the medium of Example 1, in which the O,O-diethyl p-nitrophenyl phosphate is replaced with various concentrations of O,O-di-(2-chloroethyl)-O-(3-chloro-4-methylcoumarin-7-yl)phosphate (Haloxon®; CAS No. 321-55-1; R276995, Sigma, St Quentin Fallavier, France; 0; 1; 10; 100 or 1000 mg/l), are prepared according to the method of Example 1.
(§3) The various selection media thus obtained are then poured into Petri dishes.
(§4) Seeding of Salmonella bacteria: The Petri dishes are inoculated, incubated and read as in Example 1.

free esterases in stools = test: Coloration at the point of deposit of the stool on Candida detection medium; format: biochemical; settings: summary in words
Procedure: (§5) Preparation of the detection medium: A volume of 250 ml of detection medium is prepared from a powdered medium having the following composition:
(§6) Melting is carried out at 100° C., and the medium is autoclaved at 121° C. for 15 minutes. The additives are then added to the medium: Magenta C8 (500 mg/l; B-7102, BIOSYNTH, Staad, Switzerland); X-glucoside (75 mg/l; B-7250, BIOSYNTH, Staad, Switzerland); cefsulodine (10 mg/l; C 4786, Sigma, St Quentin Fallavier, France), and also the esterase inhibitor: • ? O,O-diethyl p-nitrophenyl phosphate: 5 mg/l • ? O,O-dimethyl p-nitrophenyl phosphate: 25 mg/l or • ? O,O-di-(2-chloroethyl)-O-(3-chloro-4-methylcoumarin-7-yl)phosphate: 75 mg/l
as §3
(§7) Seeding of yeast of the Candida genus: 10 μl of stools are deposited onto a Petri dish, and this stool suspension is mixed or not mixed with 10 μl of a suspension of Candida and isolated as 3 dials on a Petri dish. Various stools and various strains of Candida genus originating from the applicant's collection are used according to this protocol. The Petri dishes are incubated at 37° C. for 24 hours.
(§8) The appearance of a coloration at the point of deposit of the stool and in the Candida colonies is read according to a semi-quantitative scale: • 0=absence of coloration • 0.5=trace coloration • 1=weak coloration • 2=strong coloration.

[1] = test system: free esterases in a stool sample; test: Coloration at the point of deposit of the stool on Salmonella detection medium (Magenta C8); format: biochemical; set-up: key to Deposit coloration: 0=no coloration; 0.5=trace of coloration; 1=weak coloration; 2=strong coloration; settings: for Deposit coloration: Table 3
Procedure: as §5
(§9) Melting is carried out at 100° C., and the medium is autoclaved at 121° C. for 15 minutes. The additives are then added to the medium: Magenta C8 (500 mg/l; B-7102, BIOSYNTH, Staad, Switzerland); X-glucoside (75 mg/l; B-7250, BIOSYNTH, Staad, Switzerland); cefsulodine (10 mg/l; C 4786, Sigma, St Quentin Fallavier, France) and various concentrations of the inhibitor O,O-diethyl p-nitrophenyl phosphate (Paraoxon® ethyl; CAS No. 311-45-5; 36186, Riedel-de Haën, St Quentin Fallavier, France; 0; 1; 5 or 10 mg/l).
(§10) The various detection media thus obtained are then poured into Petri dishes.
as §1
as §9, with “O,O-dimethyl” for “O,O-diethyl”, “methyl;” for “ethyl;”, “950-35-6;” for “311-45-5; 36186,”, “5, 10, 25” for “0; 1; 5 or 10”
as §4, §2, §3

Candida dubliniensis = test: Coloration of Candida dubliniensis colonies on detection medium; format: cell-based; set-up: key: 0=no coloration; 0.5=trace of coloration; 1=weak coloration; 2=strong coloration; settings: Table 4, 75 mg/l
Procedure: as §5, §6, §3, §7, §8

Salmonella Paratyphi A = test: Coloration of Salmonella Paratyphi A colonies on detection medium; format: cell-based; set-up: key: 0=no coloration; 0.5=trace of coloration; 1=weak coloration; 2=strong coloration
Procedure: as §5, §9, §10, §1, §2, §3, §4

Q: What does the source list for Cc1c(Cl)c(=O)oc2cc(OP(=O)(OCCCl)OCCCl)ccc12 [O,O-di-(2-chloroethyl)-O-(3-chloro-4-methylcoumarin-7-yl) phosphate]?
A: Enzymes originating from the bacteria (Salmonella bacteria): not inhibited; Aspecific enzymatic reactions due to the presence of free enzymes (free esterases in stools): greatly inhibited; Deposit coloration ([1]; 1 mg/l, stool A, Salmonella Enteritidis): 1; Deposit coloration ([1]; 1 mg/l, stool A, Salmonella Paratyphi A): 1; Deposit coloration ([1]; 1 mg/l, stool A, Salmonella Typhi): 1; Deposit coloration ([1]; 1 mg/l, stool A, no strain): 1; Deposit coloration ([1]; 1 mg/l, stool B, Salmonella Enteritidis): 0; Deposit coloration ([1]; 1 mg/l, stool B, Salmonella Paratyphi A): 0; Deposit coloration ([1]; 1 mg/l, stool B, Salmonella Typhi): 0; Deposit coloration ([1]; 1 mg/l, stool B, no strain): 1; Deposit coloration ([1]; 10 mg/l, stool A, Salmonella Enteritidis): 1; Deposit coloration ([1]; 10 mg/l, stool A, Salmonella Paratyphi A): 1; Deposit coloration ([1]; 10 mg/l, stool A, Salmonella Typhi): 1; Deposit coloration ([1]; 10 mg/l, stool A, no strain): 1; Deposit coloration ([1]; 10 mg/l, stool B, Salmonella Enteritidis): 0; Deposit coloration ([1]; 10 mg/l, stool B, Salmonella Paratyphi A): 0; Deposit coloration ([1]; 10 mg/l, stool B, Salmonella Typhi): 0; Deposit coloration ([1]; 10 mg/l, stool B, no strain): 0.5; Deposit coloration ([1]; 100 mg/l, stool A, Salmonella Enteritidis): 0.5; Deposit coloration ([1]; 100 mg/l, stool A, Salmonella Paratyphi A): 0.5; Deposit coloration ([1]; 100 mg/l, stool A, Salmonella Typhi): 0.5; Deposit coloration ([1]; 100 mg/l, stool A, no strain): 0.5; Deposit coloration ([1]; 100 mg/l, stool B, Salmonella Enteritidis): 0; Deposit coloration ([1]; 100 mg/l, stool B, Salmonella Paratyphi A): 0; Deposit coloration ([1]; 100 mg/l, stool B, Salmonella Typhi): 0; Deposit coloration ([1]; 100 mg/l, stool B, no strain): 0; Deposit coloration ([1]; 1000 mg/l, stool A, Salmonella Enteritidis): 0; Deposit coloration ([1]; 1000 mg/l, stool A, Salmonella Paratyphi A): 0; Deposit coloration ([1]; 1000 mg/l, stool A, Salmonella Typhi): 0; Deposit coloration ([1]; 1000 mg/l, stool A, no strain): 0; Deposit coloration ([1]; 1000 mg/l, stool B, Salmonella Enteritidis): 0; Deposit coloration ([1]; 1000 mg/l, stool B, Salmonella Paratyphi A): 0; Deposit coloration ([1]; 1000 mg/l, stool B, Salmonella Typhi): 0; Deposit coloration ([1]; 1000 mg/l, stool B, no strain): 0; Aspecific enzymatic reactions due to the presence of free enzymes ([1]; stools, Salmonella detection medium, summary in words): greatly inhibited; Colonies coloration (Candida dubliniensis; stool A): 1; Colonies coloration (Candida dubliniensis; stool B): 1; Colonies coloration (Salmonella Paratyphi A; Table 3, 1 mg/l, stool A): 2; Colonies coloration (Salmonella Paratyphi A; Table 3, 1 mg/l, stool B): 2; Colonies coloration (Salmonella Paratyphi A; Table 3, 10 mg/l, stool A): 2; Colonies coloration (Salmonella Paratyphi A; Table 3, 10 mg/l, stool B): 2; Colonies coloration (Salmonella Paratyphi A; Table 3, 100 mg/l, stool A): 1; Colonies coloration (Salmonella Paratyphi A; Table 3, 100 mg/l, stool B): 1; Colonies coloration (Salmonella Paratyphi A; Table 3, 1000 mg/l, stool A): 0.5; Colonies coloration (Salmonella Paratyphi A; Table 3, 1000 mg/l, stool B): 0.5

— patent US7691601B2, “Medium for detecting and/or identifying of microorganisms” (priority 2003, dated 2010)
